Measurements from publication PMC3923627 (Cell reports, 2013).

Target: p300 histone acetyltransferase (Homo sapiens, UniProt Q09472)
Experiment: in vitro histone acetyltransferase assay with purified human p300
Type: biochemical

Sequence of p300 histone acetyltransferase (Q09472 2-2414): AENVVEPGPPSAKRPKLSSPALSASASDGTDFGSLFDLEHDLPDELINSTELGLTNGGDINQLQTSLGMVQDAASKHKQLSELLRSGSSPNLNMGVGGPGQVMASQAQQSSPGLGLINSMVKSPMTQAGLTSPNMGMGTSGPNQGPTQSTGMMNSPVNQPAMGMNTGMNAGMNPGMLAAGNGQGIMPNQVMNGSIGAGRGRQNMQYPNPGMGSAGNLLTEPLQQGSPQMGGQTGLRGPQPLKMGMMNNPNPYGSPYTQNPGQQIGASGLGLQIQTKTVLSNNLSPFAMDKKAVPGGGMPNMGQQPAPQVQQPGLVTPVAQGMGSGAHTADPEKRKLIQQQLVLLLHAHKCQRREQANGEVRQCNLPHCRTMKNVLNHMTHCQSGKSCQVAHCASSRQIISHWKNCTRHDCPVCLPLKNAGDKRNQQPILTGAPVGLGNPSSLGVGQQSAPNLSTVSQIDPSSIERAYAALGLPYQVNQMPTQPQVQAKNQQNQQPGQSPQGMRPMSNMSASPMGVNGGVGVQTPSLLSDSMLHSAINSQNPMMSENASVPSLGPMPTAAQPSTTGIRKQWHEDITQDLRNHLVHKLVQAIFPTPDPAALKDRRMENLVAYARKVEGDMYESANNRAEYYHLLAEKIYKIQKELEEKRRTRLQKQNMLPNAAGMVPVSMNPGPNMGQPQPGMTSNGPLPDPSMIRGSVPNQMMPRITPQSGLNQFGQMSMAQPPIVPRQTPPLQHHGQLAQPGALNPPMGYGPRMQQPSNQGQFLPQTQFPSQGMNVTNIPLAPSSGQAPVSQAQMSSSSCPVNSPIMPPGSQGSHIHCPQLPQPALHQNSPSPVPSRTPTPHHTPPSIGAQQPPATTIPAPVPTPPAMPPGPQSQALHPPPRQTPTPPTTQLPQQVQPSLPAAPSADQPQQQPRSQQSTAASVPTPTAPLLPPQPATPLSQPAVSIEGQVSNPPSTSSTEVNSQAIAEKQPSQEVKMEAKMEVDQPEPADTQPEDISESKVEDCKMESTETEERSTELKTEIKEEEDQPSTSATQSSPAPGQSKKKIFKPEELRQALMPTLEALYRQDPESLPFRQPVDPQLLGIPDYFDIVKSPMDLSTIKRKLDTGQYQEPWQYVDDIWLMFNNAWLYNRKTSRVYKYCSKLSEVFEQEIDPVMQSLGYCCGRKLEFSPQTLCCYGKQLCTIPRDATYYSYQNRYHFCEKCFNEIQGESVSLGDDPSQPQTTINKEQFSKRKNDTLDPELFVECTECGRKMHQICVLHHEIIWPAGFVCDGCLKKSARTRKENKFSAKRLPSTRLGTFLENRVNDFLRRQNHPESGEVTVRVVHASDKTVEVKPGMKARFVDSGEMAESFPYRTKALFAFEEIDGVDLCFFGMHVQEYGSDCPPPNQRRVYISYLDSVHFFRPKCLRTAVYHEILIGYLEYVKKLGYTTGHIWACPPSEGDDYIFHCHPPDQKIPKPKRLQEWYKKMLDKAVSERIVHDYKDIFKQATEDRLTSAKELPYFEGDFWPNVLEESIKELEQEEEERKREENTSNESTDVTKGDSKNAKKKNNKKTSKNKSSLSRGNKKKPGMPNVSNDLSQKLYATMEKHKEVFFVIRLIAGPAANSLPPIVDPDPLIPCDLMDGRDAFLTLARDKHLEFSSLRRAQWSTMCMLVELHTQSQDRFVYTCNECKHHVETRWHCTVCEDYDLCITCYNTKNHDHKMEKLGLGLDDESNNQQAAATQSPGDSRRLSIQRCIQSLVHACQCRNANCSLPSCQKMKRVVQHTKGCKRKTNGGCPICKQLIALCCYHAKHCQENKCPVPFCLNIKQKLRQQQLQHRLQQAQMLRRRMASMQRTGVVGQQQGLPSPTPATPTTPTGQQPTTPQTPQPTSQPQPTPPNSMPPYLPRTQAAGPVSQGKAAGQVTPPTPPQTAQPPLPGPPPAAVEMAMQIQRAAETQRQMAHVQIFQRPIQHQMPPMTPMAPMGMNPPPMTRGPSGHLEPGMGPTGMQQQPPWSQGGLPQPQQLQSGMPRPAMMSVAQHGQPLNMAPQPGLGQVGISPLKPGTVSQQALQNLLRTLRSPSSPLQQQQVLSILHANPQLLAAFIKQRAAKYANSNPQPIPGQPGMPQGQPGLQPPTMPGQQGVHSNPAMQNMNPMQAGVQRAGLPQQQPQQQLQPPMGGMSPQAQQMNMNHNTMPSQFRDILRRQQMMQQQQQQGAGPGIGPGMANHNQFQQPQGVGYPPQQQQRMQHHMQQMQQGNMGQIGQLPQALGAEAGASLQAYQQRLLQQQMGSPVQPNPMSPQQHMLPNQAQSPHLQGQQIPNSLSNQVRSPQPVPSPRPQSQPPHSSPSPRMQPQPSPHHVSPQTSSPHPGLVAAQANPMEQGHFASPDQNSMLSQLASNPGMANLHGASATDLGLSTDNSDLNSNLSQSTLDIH

- IC50: 4.2 µM
Structure (SMILES): COc1ccc(/C(Cl)=C(/C=O)c2ccc(OC)cc2)cc1 [WD, (Z) 3-chloro-2,3-bis(4-methoxyphenyl)acrylaldehyde]
